Experimental data from US10336697B2, “Spiro[cyclobutane-1,3′-indolin]-2′-one derivatives as bromodomain inhibitors” (Orion Corporation, priority 2015, dated 2019).
Like-named read-outs stand apart in the source and are kept apart here.

Molecular target: Bet BRD4 full length bromo-domain protein (Homo sapiens, UniProt O60885)
Test: Bet bromodomain TR-FRET assay (displacement of acetyl histone peptide)
Assay type: binding
Conditions: 300 nM acetyl histone peptide substrate
[1] = Bet BRD4 full length bromodomain protein, read-out: IC50

| SMILES | IC50 [1] [nM] | IC50 (IC50, Bet BRD4 full length bromodomain protein) [nM] |
| --- | --- | --- |
| COc1ccccc1S(=O)(=O)Nc1cc(OC(=O)N2CCN(C)CC2)c2c(c1)C1(CCC1)C(=O)N2 [Compound 169, 5′-((2-Methoxyphenyl)sulfonamido)-2′-oxospiro[cyclobutane-1,3′-indolin]-7′-yl 4-methylpiperazine-1-carboxylate] | – | < 600 |
| CN1CCC(Oc2cc(NS(=O)(=O)c3ccc(F)cc3F)cc3c2NC(=O)C32CCC2)CC1 [Compound 171] | < 600 | – |
| C=C(c1nccs1)c1cc(NS(=O)(=O)c2ccccc2OC)cc2c1NC(=O)C21CCC1 [Compound 172, 2-Methoxy-N-(2′-oxo-7′-(1-(thiazol-2-yl)vinyl)spiro[cyclobutane-1,3′-indolin]-5′-yl)benzenesulfonamide] | < 600 | – |
| O=C1Nc2c(OC3CCC(F)(F)CC3)cc(NS(=O)(=O)c3ccc(Cl)cc3F)cc2C12CCC2 [Compound 175, 4-Chloro-N-(7′-((4,4-difluorocyclohexyl)oxy)-2′-oxospiro [cyclobutane-1,3′-indolin]-5′-yl)-2-fluorobenzenesulfonamide] | 600 to 1000 | – |
| O=C1CCC(Oc2cc(NS(=O)(=O)c3ccc(Cl)cc3F)cc3c2NC(=O)C32CCC2)CC1 [Compound 176, 4-chloro-2-fluoro-N-(2′-oxo-7′-((4-oxocyclohexyl)oxy)spiro[cyclobutane-1,3′-indolin]-5′-yl)benzenesulfonamide] | < 600 | – |
| COc1ccccc1S(=O)(=O)Nc1cc(C(C)c2nccs2)c2c(c1)C1(CCC1)C(=O)N2 (stereo not drawn) [Compound 177, 2-Methoxy-N-(2′-oxo-7′-(1-(thiazol-2-yl)ethyl)spiro[cyclobutane-1,3′-indolin]-5′-yl)benzenesulfonamide] | < 600 | – |
| COc1ccccc1S(C)(=O)=Nc1cc([N+](=O)[O-])c2c(c1)C1(CCC1)C(=O)N2 (stereo not drawn) [Compound-181, 5′-(((2-Methoxyphenyl)(methyl)(oxo)-l6-sulfanylidene)amino)-7′-nitrospiro[cyclobutane-1,3′-indolin]-2′-one] | > 1000 | – |
| COc1ccccc1S(C)(=O)=Nc1cc(N)c2c(c1)C1(CCC1)C(=O)N2 (stereo not drawn) [Compound-182, 7′-Amino-5′-(((2-methoxyphenyl)(methyl)(oxo)-l6-sulfanylidene)amino)spiro[cyclobutane-1,3′-indolin]-2′-one] | > 1000 | – |
| COc1ccccc1S(C)(=O)=Nc1cc(NC2CCN(C)CC2)c2c(c1)C1(CCC1)C(=O)N2 (stereo not drawn) [Compound-183, 5′-(((2-Methoxyphenyl)(methyl)(oxo)-l6-sulfanylidene)amino)-7′-((1-methylpiperidin-4-yl)amino)spiro[cyclobutane-1,3′-indolin]-2′-one] | < 600 | – |
| COc1cccc(F)c1S(=O)(=O)Nc1cc(OC2CCN(C)CC2)c2c(c1)C1(CCC1)C(=O)N2 [Compound-185, 2-Fluoro-6-methoxy-N-(7′-((1-methylpiperidin-4-yl)oxy)-2′-oxospiro[cyclobutane-1,3′-indolin]-5′-yl)benzenesulfonamide] | < 600 | – |
| O=C1Nc2c(OC3CCNCC3)cc(NS(=O)(=O)c3ccc(Cl)cc3F)cc2C12CCC2 [Compound-197, 4-Chloro-2-fluoro-N-(2′-oxo-7′-(piperidin-4-yloxy)spiro-[cyclobutane-1,3′-indolin]-5′-yl)benzene sulfonamide] | < 600 | – |

Continued, in another order:

| IC50 [1] [nM] | SMILES | IC50 (IC50, Bet BRD4 full length bromodomain protein) [nM] |
| --- | --- | --- |
| < 600 | COc1ccccc1S(=O)(=O)Nc1cc(OCCCN(C)C)c2c(c1)C1(CCC1)C(=O)N2 [Compound 164, N-(7′-(3-(dimethylamino)propoxy)-2′-oxospiro[cyclobutane-1,3′-indolin]-5′-yl)-2-methoxybenzenesulfonamide] | – |
| < 600 | CCN(CC)CCOc1cc(NS(=O)(=O)c2ccccc2OC)cc2c1NC(=O)C21CCC1 [Compound 165, N-(7′-(2-(diethylamino)ethoxy)-2′-oxospiro[cyclobutane-1,3′-indolin]-5′-yl)-2-methoxybenzenesulfonamide] | – |
| < 600 | COc1ccccc1S(=O)(=O)Nc1cc(OC(C)CN(C)C)c2c(c1)C1(CCC1)C(=O)N2 (stereo not drawn) [Compound 166, N-(7′-((1-(dimethylamino)propan-2-yl)oxy)-2′-oxospiro[cyclobutane-1,3′-indolin]-5′-yl)-2-methoxybenzenesulfonamide] | – |
| < 600 | COc1ccccc1S(=O)(=O)Nc1cc(OCCN2CCCC2)c2c(c1)C1(CCC1)C(=O)N2 [Compound 167, 2-Methoxy-N-(2′-oxo-7′-(2-(pyrrolidin-1-yl)ethoxy)spiro[cyclobutane-1,3′-indolin]-5′-yl)benzenesulfonamide] | – |
| < 600 | COc1ccccc1S(=O)(=O)Nc1cc(OCCN2CCOCC2)c2c(c1)C1(CCC1)C(=O)N2 [Compound 168, 2-Methoxy-N-(7′-(2-morpholinoethoxy)-2′-oxospiro[cyclobutane-1,3′-indolin]-5′-yl)benzenesulfonamide] | – |
| < 600 | COc1ccccc1S(=O)(=O)Nc1cc(OC(=O)N2CCOCC2)c2c(c1)C1(CCC1)C(=O)N2 [Compound 170, 5′-((2-Methoxyphenyl)sulfonamido)-2′-oxospiro[cyclobutane-1,3′-indolin]-7′-yl morpholine-4-carboxylate] | – |
| < 600 | COc1ccccc1S(=O)(=O)Nc1cc(OC2CCN(C)CC2)c2c(c1)C1(CCC1)C(=O)N2 [Compound-127, 2-methoxy-N-(7′-((1-methylpiperidin-4-yl)oxy)-2′-oxospiro[cyclobutane-1,3′-indolin]-5′-yl)benzenesulfonamide] | – |
| < 600 | CC(C)Oc1ccccc1S(=O)(=O)Nc1cc(OC2CCN(C)CC2)c2c(c1)C1(CCC1)C(=O)N2 [Compound-184, 2-Isopropoxy-N-(7′-((1-methylpiperidin-4-yl)oxy)-2′-oxospiro[cyclobutane-1,3′-indolin]-5′-yl)benzenesulfonamide] | – |
| < 600 | COc1cc(F)ccc1S(=O)(=O)Nc1cc(OC2CCN(C)CC2)c2c(c1)C1(CCC1)C(=O)N2 [Compound-189, 4-Fluoro-2-methoxy-N-(7′-((1-methylpiperidin-4-yl)oxy)-2′-oxospiro[cyclobutane-1.3′-indolin]-5′-yl)benzenesulfonamide] | – |
| < 600 | COc1ccccc1S(=O)(=O)Nc1cc(OCC2CN(C)C2)c2c(c1)C1(CCC1)C(=O)N2 [Compound-190, 2-Methoxy-N-(7′-((1-methylazetidin-3-yl)methoxy)-2′-oxospiro [cyclobutane-1,3′-indolin]-5′-yl)benzenesulfonamide] | – |
| < 600 | COc1ccccc1S(=O)(=O)Nc1cc(OCC2COCCN2)c2c(c1)C1(CCC1)C(=O)N2 (stereo not drawn) [Compound-203, 2-Methoxy-N-(7′-(morpholin-3-ylmethoxy)-2′-oxospiro[cyclobutane-1,3′-indolin]-5′-yl)benzenesulfonamide] | – |
| < 600 | COc1ccccc1S(=O)(=O)Nc1cc(OC2CCC(O)CC2)c2c(c1)C1(CCC1)C(=O)N2 (stereo not drawn) [Compound-208, N-(7′-((4-Hydroxycyclohexyl)oxy)-2′-oxospiro[cyclobutane-1,3′-indolin]-5′-yl)-2-methoxybenzenesulfonamide] | – |
| < 600 | COc1ccccc1S(=O)(=O)Nc1cc(OC2CCN(CCO)CC2)c2c(c1)C1(CCC1)C(=O)N2 [Compound-209, N-(7′-((1-(2-hydroxyethyl)piperidin-4-yl)oxy)-2′-oxospiro[cyclobutane-1,3′-indolin]-5′-yl)-2-methoxybenzenesulfonamide] | – |
